The values below come from US7361730B1, “Surface localized colligin/Hsp47 in carcinoma cells” (University of Maryland, priority 1999, dated 2008).

The test system of one assay is colligin/Hsp47. As to the kind of experiment: Cell surface labeling, cross-linking and immunoprecipitation. Type of assay: cell-based, human and murine. The note with it: 1 mM amiloride; SCC and LL/2 cells. The method, then: The methods used were previously described for the characterization of TM4SF complexes with integrins (Berditchevski et al., (1996) Molec. Biol. of the Cell 7, 193-207). In essence, cells are labeled with NHS-LC-biotin (Pierce, Rockford, Ill.) according to kit protocol, and lysed in immunoprecipitation buffer [1% Brij 96, 25 mM Hepes, pH 7.4, 150 mM NaCl, 5 mM MgCl2, 2 mM PMSF, 20 μg/ml apotinin, and 10 μg/ml leupeptin]. Immune complexes are collected on protein A beads pre-bound with antibodies, followed by four washes with immunoprecipitation buffer. For more “stringent” conditions, the immunoprecipitation buffer is supplemented with 0.2% SDS. Immune complexes are eluted from protein A beads with Laemmli elution buffer and proteins are separated by SDS-PAGE. Proteins are transferred to nitrocellulose membranes and visualized with HRPO-conjugated ExtrAvidin (Sigma Chemical Co., St. Louis Mo.) using Renaissance Chemiluminescent Reagents (NEN, Cambridge). Reprecipitations are preformed from Brij 96 lysates prepared from surface-biotinylated SCC cells. […]
(§1) For cross-linking, cells are treated with DTSSP, a membrane impermeable cross-linker or DSP. After solubilization in immunoprecipitation buffer supplemented with 0.2% SDS protein complexes are immunoprecipitated as above and analyzed under reducing conditions.

The subject of a further assay is SCC cells and LL/2 cells. As to the kind of experiment: Tumor cell invasion assay (modified Boyden chamber, Matrigel). Type of assay: cell-based, human and murine. The note with it: SCC and LL/2 cells in Matrigel chambers, 24 hrs. The method, then: An in vitro assay is modified after that described previously by Chu et al. (1993) Proc. Natl. Acad. Sci. 90, 4261-4265, utilizing Matrigel®, a reconstituted basement membrane. In essence, a modified Boyden chamber containing an 8 μm-porosity polyvinylpyrolidone-free polycarbonate filter is precoated with Matrigel® (Collaborative Biomedical Products, Becton Dickinson, Bedford, Mass.). The lower well of the chamber is then filled with serum free medium containing 500 μl of 3T6 cell-conditioned medium as a chemoattractant. The upper well is then seeded with 200 μl of cell suspension at 1.0×10^4 cells/chamber plus additives as indicated. The chambers are then incubated at 37° C. for 24 hrs. […] The resulting cells contained in Matrigel®, as well as the cells in the lower chamber, are counted in a Coulter counter. Data are expressed as the percent invasion through the matrix and membrane relative to the migration through the control membrane. The “Invasion Index” is expressed as the ratio of the percent invasion of a test cell over the percent invasion of a control cell.
Overall treatment and group effects are assessed using an analysis of variance (ANOVA), with post-hoc comparisons based on the Newman-Keuls test (p<0.05). The association of mean HSP47 fluorescence labeling with the invasion index is evaluated using the nonparametric Spearman's rank-order correlation coefficient (rho).

The target in assay [1] is T1, colligin/Hsp47 on the surface of murine Lewis Lung Carcinoma (LL/2) cells (murine, UniProt P19324 18-417).
T1 construct: whole, on cells; Endogenous protein of LL/2 cells
T1 sequence (looked up): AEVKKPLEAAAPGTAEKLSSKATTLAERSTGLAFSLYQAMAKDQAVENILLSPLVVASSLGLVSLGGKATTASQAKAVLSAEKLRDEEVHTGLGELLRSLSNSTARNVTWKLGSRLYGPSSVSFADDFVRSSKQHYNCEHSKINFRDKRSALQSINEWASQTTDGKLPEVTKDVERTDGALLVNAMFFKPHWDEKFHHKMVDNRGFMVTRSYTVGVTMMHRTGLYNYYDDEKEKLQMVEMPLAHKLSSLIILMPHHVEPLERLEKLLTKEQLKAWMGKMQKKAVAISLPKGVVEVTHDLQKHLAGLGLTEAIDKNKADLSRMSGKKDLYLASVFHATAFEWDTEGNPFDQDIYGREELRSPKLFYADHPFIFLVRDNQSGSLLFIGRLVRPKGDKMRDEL
As to the kind of experiment: cross-linking (DSP) and immunoprecipitation with anti-CD81 mAbs, LL/2 cells. The protocol: (§2) Reprecipitations are preformed from Brij 96 lysates prepared from surface-biotinylated SCC cells. After five washes with the immunoprecipitation buffer, the protein complexes are dissociated with 0.5% SDS added to the immunoprecipitation buffer. The eluates are subsequently diluted 1:1 with immunoprecipitation buffer and re-precipitated with the appropriate antibodies directly coupled to Sepharose beads. The samples are then processed as described above.
as §1
(§3) Membrane surface proteins are consistently co-precipitated with anti-colligin/Hsp47 antibodies. In cross-linking studies, SCC and LL/2 cells are first pre-treated with a cleavable cross-linker, DSP, then surface labeled with biotin or [^125]-I, and subsequent immunoprecipitation is carried out under stringent conditions to disrupt the noncovalent association between Hsp and tetraspanin protein. […] A characteristic 47K band is readily detected in all anti-CD9 immunoprecipitates and protein band of 22K, similar in size to CD9/or CD81, is co-precipitated with anti-colligin/Hsp47. […]

Assay [2] deals with T2, colligin/CBP2/Hsp47 on the surface of human carcinoma cells (human, UniProt P50454 19-418).
T2 construct: whole, on cells; Endogenous protein on intact cells or in plasma membrane preparations or Brij 96 lysates of surface-biotinylated cells; The 46K band is called unglycosylated Hsp47; also called colligin/Hsp47; cell surface colligin/Hsp47
T2 sequence (looked up): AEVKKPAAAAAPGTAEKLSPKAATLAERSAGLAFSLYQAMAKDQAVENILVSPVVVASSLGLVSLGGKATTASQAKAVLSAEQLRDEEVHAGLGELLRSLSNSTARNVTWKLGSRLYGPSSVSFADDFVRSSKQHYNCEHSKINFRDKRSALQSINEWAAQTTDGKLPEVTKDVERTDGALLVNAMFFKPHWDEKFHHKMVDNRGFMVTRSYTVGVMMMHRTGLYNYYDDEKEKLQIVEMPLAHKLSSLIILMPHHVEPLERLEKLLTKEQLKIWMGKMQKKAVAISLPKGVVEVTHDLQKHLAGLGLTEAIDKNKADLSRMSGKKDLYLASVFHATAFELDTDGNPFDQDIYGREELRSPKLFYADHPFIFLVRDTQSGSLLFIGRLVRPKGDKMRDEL
The assay is described as follows: cross-linking (DSP) and immunoprecipitation with anti-CD81 mAbs, SCC cells. The method, then: as §2, §1, §3

For the molecule `N=C(N)NC(=O)c1nc(Cl)c(N)nc1N` [amiloride], in the assay with colligin/Hsp47, the “amount of colligin/Hsp47 recovered following immunoprecipitation” value is given as “greatly enhances”. In the assay on SCC cells and LL/2 cells, the invasion index result was “dramatically decreases the invasion index”.

B1: CD81 on murine LL/2 cells (other, UniProt P35762 1-236, looked up)
chain: MGVEGCTKCIKYLLFVFNFVFWLAGGVILGVALWLRHDPQTTSLLYLELGNKPAPNTFYVGIYILIAVGAVMMFVGFLGCYGAIQESQCLLGTFFTCLVILFACEVAAGIWGFVNKDQIAKDVKQFYDQALQQAVMDDDANNAKAVVKTFHETLNCCGSNALTTLTTTILRNSLCPSGGNILTPLLQQDCHQKIDELFSGKLYLIGIAAIVVAVIMIFEMILSMVLCCGIRNSSVY
notes: whole, on cells
Turning to B1, the binding result in assay [1] is on record as “no binding”.

B2: CD81 on human SCC cells (other, UniProt P60033 1-236, looked up)
chain: MGVEGCTKCIKYLLFVFNFVFWLAGGVILGVALWLRHDPQTTNLLYLELGDKPAPNTFYVGIYILIAVGAVMMFVGFLGCYGAIQESQCLLGTFFTCLVILFACEVAAGIWGFVNKDQIAKDVKQFYDQALQQAVVDDDANNAKAVVKTFHETLDCCGSSTLTALTTSVLKNNLCPSGSNIISNLFKEDCHQKIDDLFSGKLYLIGIAAIVVAVIMIFEMILSMVLCCGIRNSSVY
notes: whole, on cells
For the molecule B2, in assay [2], the binding result is recorded as “no binding”.
